# Where a name gives a salt, the structure may show the parent alone.
# Assays:
# Type in all cases: biochemical
# Human LOXL2 = Human LOXL2 (Homo sapiens (Human), UniProt Q9Y4K0); test: LOXL2 inhibition, peroxidase-coupled Amplex Red amine oxidase assay; conditions: 30 min preincubation at 37° C., putrescine substrate
# From the text: (§1) Method to Determine the Ability of Compounds of the Invention to Inhibit LOX and LOXL1-4 from Different Sources
# (§2) Lysyl oxidase (LOX) is an extracellular copper dependent enzyme which oxidizes peptidyl lysine and hydroxylysine residues in collagen and lysine residues in elastin to produce peptidyl alpha-aminoadipic-delta-semialdehydes. […] There are five LOX family members; these are LOX, LOXL1, LOXL2, LOXL3 and LOXL4. LOX and LOXL family members can be acquired as recombinant active proteins from commercial sources, or extracted from animal tissues like bovine aorta, tendons, pig skin; or prepared from cell cultures. The inhibitory effects of the compounds of the present invention were tested against the given LOX-LOXL preparation using a high-throughput coupled colorimetric method (Holt A. and Palcic M., A peroxidase-coupled continuous absorbance plate-reader assay for flavin monoamine oxidases, copper-containing amine oxidases and related enzymes. Nat. Protoc. 2006; 1: 2498-2505). The assay was developed using either 384 or 96 well format. Briefly, in a standard 384 well plate assay 25 μL of a dilution of any of the isoenzymes and orthologues in 1.2 M urea, 50 mM sodium borate buffer (pH 8.2) were added into each well in the presence of 1 μM mofegiline and 0.5 mM pargyline (to inhibit SSAO and MAO-B and MAO-A, respectively). Test compounds were dissolved in DMSO and tested in a Concentration Response Curve (CRC) with 11 data points, typically in the micromolar or nanomolar range after incubation with the enzyme for 30 min at 37° C. Twenty five μL of a reaction mixture containing twice the KM concentration of putrescine (Sigma Aldrich, e.g. 20 mM for LOX, or 10 mM for LOXL2 and LOXL3), 120 μM Amplex Red (Sigma Aldrich) and 1.5 U/mL horseradish peroxidase (Sigma Aldrich) prepared in 1.2 M urea, 50 mM sodium borate buffer (pH 8.2) were then added to the corresponding wells. The above volumes were doubled in the case of 96 wells plate. The fluorescence (RFU) was read every 2.5 min for 30 min at a range of temperatures from 37° to 45° C., excitation 565 nm and emission 590 (Optima; BMG labtech). The slope of the kinetics for each well was calculated using MARS data analysis software (BMG labtech) and this value was used to deduce the IC50 value (Dotmatics).
# [1] = target: Human recombinant SSAO/VAP-1 (Homo sapiens (Human), UniProt Q16853); test: Human recombinant SSAO/VAP-1 amine oxidase inhibition; conditions: 30 min preincubation at 37° C., 600 μM benzylamine
# Sequence of Human recombinant SSAO/VAP-1 (Q16853 34-763): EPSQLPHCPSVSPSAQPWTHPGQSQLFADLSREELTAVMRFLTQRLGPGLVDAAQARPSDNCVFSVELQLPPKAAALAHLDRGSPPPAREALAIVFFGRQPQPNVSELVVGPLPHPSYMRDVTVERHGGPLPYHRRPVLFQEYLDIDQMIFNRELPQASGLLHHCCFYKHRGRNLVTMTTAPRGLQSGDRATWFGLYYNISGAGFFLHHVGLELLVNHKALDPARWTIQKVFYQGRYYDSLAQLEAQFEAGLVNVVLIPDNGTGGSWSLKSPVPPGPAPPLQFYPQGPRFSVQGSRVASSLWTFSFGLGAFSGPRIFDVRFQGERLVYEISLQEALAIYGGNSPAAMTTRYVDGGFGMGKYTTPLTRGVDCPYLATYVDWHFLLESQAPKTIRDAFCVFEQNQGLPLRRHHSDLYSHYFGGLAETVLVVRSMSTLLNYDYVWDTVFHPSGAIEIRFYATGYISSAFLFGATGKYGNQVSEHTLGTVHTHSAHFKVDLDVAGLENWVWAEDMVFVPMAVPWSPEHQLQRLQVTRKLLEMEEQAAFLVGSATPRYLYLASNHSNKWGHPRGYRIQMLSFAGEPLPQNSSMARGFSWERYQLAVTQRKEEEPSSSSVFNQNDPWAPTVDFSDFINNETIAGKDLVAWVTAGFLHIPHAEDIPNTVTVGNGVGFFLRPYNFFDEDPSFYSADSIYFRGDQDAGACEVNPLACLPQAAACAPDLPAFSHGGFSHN
# Method: Method to Determine the Ability of Compounds of Formula I to Inhibit Human Recombinant SSAO/VAP-1
# Human recombinant SSAO/VAP-1 amine oxidase activity was determined using the coupled colorimetric method as described for monoamine oxidase, copper-containing amine oxidases and related enzymes (Holt A. and Palcic M., A peroxidase-coupled continuous absorbance plate-reader assay for flavin monoamine oxidases, copper-containing amine oxidases and related enzymes. Nat Protoc 2006; 1: 2498-2505). Briefly, a cloned cDNA template corresponding to residues 34-763 of human SSAO/VAP-1, and incorporating a mouse Ig kappa (κ) signal sequence, N-terminal flag epitope tag and tobacco etch virus (TEV) cleavage site, was assembled in a mammalian expression vector (pLO-CMV) by Geneart AG. This vector containing human SSAO/VAP-1 residues was transfected into CHO-K1 glycosylation mutant cell line, Lec 8. A clone stably expressing human SSAO/VAP-1 was isolated and cultured in large scale. Active human SSAO/VAP-1 was purified and recovered using immunoaffinity chromatography. This was used as the source for SSAO/VAP-1 activity. A high-throughput colorimetric assay was developed using either 96 or 384 well format. Briefly, in a standard 96 well plate assay 50 μL of purified human SSAO/VAP-1 (0.25 μg/mL) in 0.1 M sodium phosphate buffer (pH 7.4) was added into each well. Test compounds were dissolved in DMSO and tested in a Concentration Response Curve (CRC) with 4-11 data points, typically in the micromolar or nanomolar range after incubation with human SSAO/VAP-1 for 30 min at 37° C. After 30 min incubation, 50 μL of the reaction mixture containing 600 μM benzylamine (Sigma Aldrich), 120 μM Amplex Red (Sigma Aldrich) and 1.5 U/mL horseradish peroxidase (Sigma Aldrich) prepared in 0.1 M sodium phosphate buffer (pH 7.4) were added to the corresponding well. The fluorescence unit (RFU) was read every 2.5 min for 30 min at 37° C. excitation 565 nm and emission 590 (Optima; BMG labtech). The slope of the kinetics for each well was calculated using MARS data analysis software (BMG labtech) and this value was used to deduce the IC50 value (Dotmatics).
# Recombinant human MAO-B = Recombinant human MAO-B (Homo sapiens (Human), UniProt P27338); test: Human recombinant MAO-B inhibition; conditions: benzylamine 100 μM
# Sequence of Recombinant human MAO-B (P27338 whole entry): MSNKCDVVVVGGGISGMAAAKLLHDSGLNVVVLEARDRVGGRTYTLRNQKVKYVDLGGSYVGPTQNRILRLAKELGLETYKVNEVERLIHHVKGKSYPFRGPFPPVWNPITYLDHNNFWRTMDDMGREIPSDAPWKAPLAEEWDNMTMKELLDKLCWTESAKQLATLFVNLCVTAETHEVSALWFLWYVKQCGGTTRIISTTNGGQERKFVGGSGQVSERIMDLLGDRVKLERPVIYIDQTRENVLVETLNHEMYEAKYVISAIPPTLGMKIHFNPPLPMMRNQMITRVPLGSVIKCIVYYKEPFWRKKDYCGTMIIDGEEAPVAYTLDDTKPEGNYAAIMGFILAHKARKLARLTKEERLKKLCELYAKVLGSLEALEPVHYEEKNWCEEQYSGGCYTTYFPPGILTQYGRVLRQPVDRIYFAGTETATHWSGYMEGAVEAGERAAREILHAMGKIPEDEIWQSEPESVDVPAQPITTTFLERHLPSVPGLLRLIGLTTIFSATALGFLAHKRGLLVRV
# Method: Method to Determine the Ability of Compounds of Formula I to Inhibit Human Recombinant MAO-B
# The specificity of the compounds of this invention was tested by determining their ability to inhibit MAO-B activities in vitro. Recombinant human MAO-B (0.06 mg/mL; Sigma Aldrich) was used as source of MAO-B enzyme activities. The assay was performed in a similar way as for human SSAO/VAP-1 (Example 36) except, the substrate benzylamine was used at 100 μM.
# Bovine LOX = Bovine LOX (Bos taurus (Bovine), UniProt P33072); test: LOX inhibition, peroxidase-coupled Amplex Red amine oxidase assay; conditions: 30 min preincubation at 37° C., putrescine substrate
# Sequence of Bovine LOX (P33072 170-418): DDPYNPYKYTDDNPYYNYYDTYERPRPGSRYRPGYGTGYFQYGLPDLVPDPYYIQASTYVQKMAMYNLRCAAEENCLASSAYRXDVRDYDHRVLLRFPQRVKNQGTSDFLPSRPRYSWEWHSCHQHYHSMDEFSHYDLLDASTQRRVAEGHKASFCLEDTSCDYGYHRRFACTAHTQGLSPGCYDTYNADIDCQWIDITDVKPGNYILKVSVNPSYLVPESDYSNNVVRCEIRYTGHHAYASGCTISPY
# From the text: as §1
# as §2, with “Test compounds were dissolved in DMSO and tested in a Concentration Response Curve (CRC) with 11 data points, typically in the micromolar or nanomolar range after incubation with the enzyme for 30 min at 37° C.” left out
# Sequence of Human LOXL2 (Q9Y4K0 26-774): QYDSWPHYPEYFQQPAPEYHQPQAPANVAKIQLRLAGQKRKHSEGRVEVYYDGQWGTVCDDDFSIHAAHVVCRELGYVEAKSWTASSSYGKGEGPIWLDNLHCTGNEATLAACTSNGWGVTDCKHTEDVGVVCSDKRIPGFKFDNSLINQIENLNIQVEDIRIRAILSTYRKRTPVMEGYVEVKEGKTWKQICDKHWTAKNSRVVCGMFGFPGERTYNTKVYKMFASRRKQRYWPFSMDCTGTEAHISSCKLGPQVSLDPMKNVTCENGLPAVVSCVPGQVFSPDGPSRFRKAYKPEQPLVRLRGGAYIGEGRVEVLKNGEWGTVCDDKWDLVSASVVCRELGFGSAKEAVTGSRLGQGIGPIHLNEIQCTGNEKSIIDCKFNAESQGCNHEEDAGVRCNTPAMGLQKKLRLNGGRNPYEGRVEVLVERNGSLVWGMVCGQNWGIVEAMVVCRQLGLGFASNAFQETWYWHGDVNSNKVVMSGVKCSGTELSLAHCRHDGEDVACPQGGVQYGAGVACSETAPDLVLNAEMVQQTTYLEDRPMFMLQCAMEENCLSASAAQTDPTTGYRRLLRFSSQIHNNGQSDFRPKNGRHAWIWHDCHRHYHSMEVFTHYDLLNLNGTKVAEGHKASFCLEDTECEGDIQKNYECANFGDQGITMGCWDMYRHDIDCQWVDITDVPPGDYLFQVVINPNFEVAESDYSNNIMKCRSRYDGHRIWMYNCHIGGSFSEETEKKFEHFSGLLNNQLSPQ
SMILES,IC50 (Human LOXL2) [µM],IC50 [1] [µM],IC50 (Recombinant human MAO-B) [µM],IC50 (Bovine LOX) [µM]
"Cc1c(Cc2ccc(S(=O)(=O)N(C)C)cc2)c2nc(F)ccc2n1C/C(F)=C/CN [Compound 23, (Z)-4-((1-(4-amino-2-fluorobut-2-en-1-yl)-5-fluoro-2-methyl-1H-pyrrolo[3,2-b]pyridin-3-yl)methyl)-N,N-dimethylbenzenesulfonamide dihydrochloride]",< 0.3,> 3,> 3,> 0.3
"Cc1c(Cc2ccc(S(=O)(=O)N(C)C)cc2)c2ncc(F)cc2n1C/C(F)=C/CN [Compound 24, (Z)-4-((1-(4-amino-2-fluorobut-2-en-1-yl)-6-fluoro-2-methyl-1H-pyrrolo[3,2-b]pyridin-3-yl)methyl)-N,N-dimethylbenzenesulfonamide dihydrochloride]",< 0.3,> 3,> 3,> 0.3
"CN(C)S(=O)(=O)c1ccc(Cc2c(C(C)(C)O)n(C/C(F)=C/CN)c3cccnc23)cc1 [Compound 25, (Z)-4-((1-(4-amino-2-fluorobut-2-en-1-yl)-2-(2-hydroxypropan-2-yl)-1H-pyrrolo[3,2-b]pyridin-3-yl)methyl)-N,N-dimethylbenzenesulfonamide dihydrochloride]",< 0.3,> 3,> 3,> 0.3
"Cc1c(Cc2ccc(S(=O)(=O)N(C)C)cc2)c2ccccc2n1C/C(F)=C/CN [Compound 26, (Z)-4-((1-(4-amino-2-fluorobut-2-en-1-yl)-2-methyl-1H-indol-3-yl)methyl)-N,N-dimethylbenzene-sulfonamide hydrochloride]",< 0.3,> 3,> 3,> 0.3
"Cc1c(Cc2ccc(S(C)(=O)=O)nc2)c2nc(C3CC3)ccc2n1C/C(F)=C/CN [Compound 27, (Z)-4-(5-cyclopropyl-2-methyl-3-((6-(methylsulfonyl)pyridin-3-yl)methyl)-1H-pyrrolo[3,2-b]pyridin-1-yl)-3-fluorobut-2-en-1-amine trihydrochloride]",< 0.3,> 3,> 3,> 0.3
"Cc1c(Cc2ccc(S(=O)(=O)N(C)C)cc2)c2nc(C(C)(C)O)ccc2n1C/C(F)=C/CN [Compound 28, (Z)-4-((1-(4-amino-2-fluorobut-2-en-1-yl)-5-(2-hydroxypropan-2-yl)-2-methyl-1H-pyrrolo[3,2-b]pyridin-3-yl)methyl)-N,N-dimethylbenzenesulfonamide dihydrochloride]",< 0.3,> 3,> 3,> 0.3
"CC(O)c1c(Cc2ccc(S(=O)(=O)N(C)C)cc2)c2ncccc2n1C/C(F)=C/CN (stereo not drawn) [Compound 29, (Z)-4-((1-(4-amino-2-fluorobut-2-en-1-yl)-2-(1-hydroxyethyl)-1H-pyrrolo[3,2-b]pyridin-3-yl)methyl)-N,N-dimethylbenzenesulfonamide dihydrochloride]",< 0.3,> 3,> 3,> 0.3
"Cc1c(Cc2ccc(S(C)(=O)=O)nc2)c2nc(C(C)(F)F)ccc2n1C/C(F)=C/CN [Compound 30, (Z)-4-(5-(1,1-difluoroethyl)-2-methyl-3-((6-(methylsulfonyl)pyridin-3-yl)methyl)-1H-pyrrolo[3,2-b]pyridin-1-yl)-3-fluorobut-2-en-1-amine trihydrochloride]",< 0.3,> 3,> 3,> 0.3
"Cc1c(Cc2ccc(S(C)(=O)=O)nc2)c2nc(C(F)(F)F)ccc2n1C/C(F)=C/CN [Compound 31, (Z)-3-fluoro-4-(2-methyl-3-((6-(methylsulfonyl)pyridin-3-yl)methyl)-5-(trifluoromethyl)-1H-pyrrolo[3,2-b]pyridin-1-yl)but-2-en-1-amine trihydrochloride]",< 0.3,> 3,> 3,> 0.3
"Cc1c(Cc2ccc(S(=O)(=O)N(C)C)cc2)c2cnccc2n1C/C(F)=C/CN [Compound 32, (Z)-4-((1-(4-amino-2-fluorobut-2-en-1-yl)-2-methyl-1H-pyrrolo[3,2-c]pyridin-3-yl)methyl)-N,N-dimethylbenzenesulfonamide dihydrochloride]",< 0.3,> 3,> 3,> 0.3
"CC(C)c1c(Cc2ccc(S(C)(=O)=O)cc2)c2ncccc2n1C/C(F)=C/CN [Compound 33, (Z)-3-fluoro-4-(2-isopropyl-3-(4-(methylsulfonyl)benzyl)-1H-pyrrolo[3,2-b]pyridin-1-yl)but-2-en-1-amine dihydrochloride]",< 0.3,> 3,> 3,> 0.3
"Cc1cc(S(C)(=O)=O)ccc1Cc1c(C)n(C/C(F)=C/CN)c2cccnc12 [Compound 34, (Z)-3-fluoro-4-(2-methyl-3-(2-methyl-4-(methylsulfonyl)benzyl)-1H-pyrrolo[3,2-b]pyridin-1-yl)but-2-en-1-amine dihydrochloride]",< 0.3,> 3,> 3,> 0.3

# From US10717734B2, “Indole and azaindole haloallylamine derivative inhibitors of lysyl oxidases and uses thereof” (PHARMAXIS LTD., priority 2016, dated 2020)
